Data set [1] can be described thus: Incubation of reduced peptide with human duodenal fluid, LC/MS. It counts as in vitro ADME. Particulars: after reduction with 2 mM TCEP; duodenal fluid 30 minutes at 37° C. The procedure: 2.5 μg of HD-5 or HD-6 were incubated in 50 mM NH4HCO3 buffer (pH 8.0) (Fluka) with 2 mM tris(2-carboxyethyl) phosphine for 15 minutes at 37° C. Afterwards human duodenal fluid was added and incubated for additional 30 minutes at 37° C. At last, formic acid and acetonitrile was added in a final concentration of 0.5% and 10%, respectively, and analyzed the samples by mass spectrometry. Mass spectrometry was performed as a LC/MS system using an Agilent 1200 series HPLC with an Agilent Advanced Bio Peptide Map (2.1×150 mm, 2.7 μm) column with a flow of 0.4 ml/min at 55° C. column temperature and a 6540 UHD Q-TOF LC/MS system (Agilent) for mass analysis. The samples were separated by a gradient of acetonitrile in 0.1% formic acid. The gradient started at 2% acetonitrile for 4 minutes and then increased during 35 minutes to 45%. Mass spectrometric analyses were performed in single MS mode from 100 to 3400 m/z with positive ion polarity and were analyzed by Agilent MassHunter Quantitative Analysis B 06.00 software.

Data set [2] relates to E. faecalis ATCC 19433. Put plainly: Turbidity assay, MIC by optical density after 18 h. It counts as cell-based.
In data set [3] the test system is pathogenic bacteria. Briefly: Radial diffusion assay, HD-5 fragments. It counts as cell-based. Particulars: pathogenic Gram-positive and Gram-negative bacteria (FIG. 4). How it is done:
A heat map system with high activity (inhibition zone in the RDA>5 mm), low activity (2.5 to 5 mm) and no activity (2.5 mm) was used.
(§1) Antimicrobial activity of all peptides was tested with a modified radial diffusion assay from Lehrer et al^12 Shortly described, log-phase bacteria grew (anaerobic bacteria with AnaeroGen, Oxoid in anaerobic jars) in liquid tryptic soy broth (TSB) (Becton Dickinson). After several wash steps in 10 mM sodium phosphate buffer pH 7.4, 4×10^6 cfu/ml was used per assay. To measure the antibacterial effect of the identified peptide fragments, the bacteria were incubated in 10 mM sodium phosphate (pH 7.4) containing 0.3 mg/ml TSB powder and 1% (w/v) low EEO-agarose (Applichem). Peptide fragments were then pipetted into punched wells and allowed to diffuse for 3 hours at 37° C. After that a nutrient rich gel with 6% TSB (w/v) and 1% agarose in 10 mM sodium phosphate buffer was poured on top of the first gel. After 24 hours the inhibition zones were measured. […] All experiments were carried out at least three times.

The subject of data set [4] is E. coli MC1000. Put plainly: Transmission electron microscopy of peptide treated bacteria. In kind it is cell-based. Particulars: 200 μg/ml, 2 hours. How it is done: Transmission electron microcscopy experiments were performed as previously described^11. 6×10^8 cfu E. coli MC1000 was incubated with 200 μg/ml of each peptide for 2 hours. Bacteria were fixed in Karnovsky's fixative, embedded in agarose, coagulated, cut in small blocks and fixed again in Karnovsky's solution. After post-fixation and embedding in glycid ether blocks were cut using an ultra-microtome. Sections (30 nm) were mounted on copper grids and analyzed using a Zeiss LIBRA 120 transmissions electron microscope.

The subject of data set [5] is commensal bacteria. Briefly: Radial diffusion assay, HD-5 fragments. In kind it is cell-based. The conditions noted are these: 4 μg fragment, 2 μg full-length peptide; commensal bacteria (FIG. 3). How it is done: In the RDA 2 μg of the full length and 4 μg of each fragment were used. An inhibition zone greater than 5 mm was determined as high activity, between 2.5 and 5 mm as low activity and 2.5 mm were the diameter of the punched well and therefore no activity.
as §1

Data set [6] relates to A. baumannii 4-MRGN. It counts as cell-based. The procedure: (§2) The tested bacteria were incubated overnight in 1×TSB broth, centrifuged and washed with 10 mM sodium phosphate buffer containing 1% (w/v) TSB broth. 5×10^5 cfu/ml bacteria were mixed with different peptide concentrations in 10 mM sodium phosphate buffer with 1% (w/v) TSB (final volume 100 μl) and incubated for 2 hours at 37° C. Afterwards we added 100 μl 2×TSB broth and we measured the optical density at 600 nm (Spark 10M, Tecan, Austria). Bacterial growth was monitored for 12 hours, growing at 37° C. with shaking during the measurements each 30 minutes, except for Akkermansia muciniphila which were incubated at 37° C. in an anaerobic jar and growth was measured after 72 hours.

Data set [7] deals with P. aeruginosa ATCC 27853. In kind it is cell-based. The procedure: as §2

Read-outs that look alike come from different tables or passages of the source. Where a SMILES comes first, the peptide text is derived from it. Bridges are numbered along the chain shown (N, C = ends).

Take AFTCHCRRSCYSTEYSYGTCTVMGINHRFCCL [HD-6]: in data set [1], the “susceptibility to proteolytic digestion” value is listed as “protected against proteolytic digestion”.

On to “CTRATYCRG [random amino acid structure of HD51-9]”, for which, in data set [2], the “antimicrobial activity, in words” value is “complete dissolving of bactericidal effects”.

As for `CC[C@H](C)[C@H](NC(=O)[C@H](CCC(=O)O)NC(=O)[C@H](CS)NC(=O)[C@@H](NC(=O)CNC(=O)[C@H](CO)NC(=O)[C@H](CC(C)C)NC(=O)[C@H](CO)NC(=O)[C@H](CCC(=O)O)NC(=O)[C@H](CCCNC(=N)N)NC(=O)[C@@H](NC(=O)[C@H](C)NC(=O)[C@H](CS)NC(=O)[C@H](CCCNC(=N)N)NC(=O)CNC(=O)[C@@H](NC(=O)[C@H](CCCNC(=N)N)NC(=O)[C@H](CS)NC(=O)[C@H](Cc1ccc(O)cc1)NC(=O)[C@H](CS)NC(=O)[C@@H](NC(=O)[C@H](C)N)[C@@H](C)O)[C@@H](C)O)[C@@H](C)O)C(C)C)C(=O)N[C@@H](CO)C(=O)NCC(=O)N[C@@H](CCCNC(=N)N)C(=O)N[C@@H](CC(C)C)C(=O)N[C@@H](Cc1ccc(O)cc1)C(=O)N[C@@H](CCCNC(=N)N)C(=O)O` [HD-51-28] (H-ATCYCRTGRCATRESLSGVCEISGRLYR-OH; N-terminus and C-terminus assumed), the “antimicrobial activity in radial diffusion assay” value is on record as “only minimally active or more selective in terms of different strains” in data set [3] and “exhibited antimicrobial properties, albeit to a lesser extent than HD-51-9” in data set [5]. Moreover, the “phenotype of peptide treated bacteria (TEM)” value (“phenotype” below) in data set [4] is “bigger aggregation inside the bacteria”.

As for `C[C@H](N)C(=O)N[C@H](C(=O)N[C@@H](CS)C(=O)N[C@@H](Cc1ccc(O)cc1)C(=O)N[C@@H](CS)C(=O)N[C@@H](CCCNC(=N)N)C(=O)N[C@H](C(=O)NCC(=O)N[C@@H](CCCNC(=N)N)C(=O)N[C@@H](CS)C(=O)N[C@@H](C)C(=O)N[C@H](C(=O)N[C@@H](CCCNC(=N)N)C(=O)O)[C@@H](C)O)[C@@H](C)O)[C@@H](C)O` [HD-51-13] (H-ATCYCRTGRCATR-OH; N-terminus and C-terminus assumed), the “phenotype” value in data set [4] was “bigger aggregation inside the bacteria”. Further, the “antimicrobial activity in radial diffusion assay” value in data set [5] is “exhibited antimicrobial properties, albeit to a lesser extent than HD-51-9”.

Usually MIC stands for the smallest concentration in the dilution series that meets the test's criterion for growth inhibition. Read a low MIC as a more susceptible organism. For `CC[C@H](C)[C@@H]1NC(=O)[C@H](CCC(=O)O)NC(=O)[C@@H]2CSSC[C@@H]3NC(=O)[C@H](Cc4ccc(O)cc4)NC(=O)[C@@H](NC(=O)[C@@H](NC(=O)[C@H](C)N)[C@@H](C)O)CSSC[C@@H](C(=O)N[C@@H](CCCNC(=N)N)C(=O)O)NC(=O)[C@H](CSSC[C@H](NC(=O)[C@H](CCCNC(=N)N)NC(=O)CNC(=O)[C@H]([C@@H](C)O)NC(=O)[C@H](CCCNC(=N)N)NC3=O)C(=O)N[C@@H](C)C(=O)N[C@@H]([C@@H](C)O)C(=O)N[C@@H](CCCNC(=N)N)C(=O)N[C@@H](CCC(=O)O)C(=O)N[C@@H](CO)C(=O)N[C@@H](CC(C)C)C(=O)N[C@@H](CO)C(=O)NCC(=O)N[C@@H](C(C)C)C(=O)N2)NC(=O)[C@H](CC(C)C)NC(=O)[C@H](CCCNC(=N)N)NC(=O)[C@H](Cc2ccc(O)cc2)NC(=O)[C@H](CC(C)C)NC(=O)[C@H](CCCNC(=N)N)NC(=O)CNC(=O)[C@H](CO)NC1=O` [HD-5, reference compound] (H-ATCYCRTGRCATRESLSGVCEISGRLYRLCCR-OH; disulfide 3-31, 5-20, 10-30 (inferred); N-terminus and C-terminus assumed), the “antimicrobial activity in radial diffusion assay” value was “strong effect on the growth of every tested bacterium” in data set [3] and “broad antimicrobial activity” in data set [5]. In addition, the “susceptibility to proteolytic digestion” value in data set [1] is listed as “digested by intestinal proteases”. The MIC was found to be 6.25 µM in data set [6] (4-MRGN, 12 h); 22.4 µg/mL in data set [6] (A. baumannii 4-MRGN, after 12 hours, listed as fl); 25 µM in data set [7] (ATCC 27853, 12 h); 89.7 µg/mL in data set [7] (P. aeruginosa ATCC 27853, after 12 hours, listed as fl). Besides, in data set [4], the “phenotype” value was “detached inner membrane and small vesicular structures around the bacteria cell envelope”.

The record behind these values is patent publication US12358949B2, “Defensin fragments for use in therapy or prophylaxis” (priority 2019, dated 2025).
